# Columns and labels:
# [1] = tested on: non-growing UPEC CFT073; assay: Dilution-regrowth assay (screen, hit validation, dose-response) on stationary-phase UPEC; assay type: cell-based, Escherichia coli
# Description: (§1) The cultures were incubated for 24 h in non-baffled Erlenmeyer flasks at 37 °C with shaking at 200 rpm.
# The high-throughput screening (HTS) procedure was based on the protocol by Hazan and colleagues[15] and conducted at the Chemical Biology Consortium Sweden (CBCS) screening facility. […] Each plate included eight wells with 200 nl of 10 mM gatifloxacin, finafloxacin, and kanamycin solutions, along with 8-wells containing 200 nl of DMSO as controls. After 24 h incubation,100 μl of the culture was dispensed into each well of the 384-well plates for screening at a final concentration of 20 μM. The plates were sealed with parafilm and incubated at 37 °C for 24 h in closed humidified boxes, with wet paper towels added to prevent evaporation. […] The plates were incubated at 37 °C for 6 h in humidified boxes, then OD600 was measured using a microplate reader.
# For hit validation, bacteria were cultivated, and the dilution-regrowth assay was conducted following the same protocol used in the primary screen. Hit compounds were dispensed into 384-well plates using the Echo® (Labcyte) system, with 200, 100, or 50 nl of a 10 mM solution in DMSO added per well, yielding final screening concentrations of 20, 10, and 5 μM, respectively. OD600 values of regrowing samples were normalized to the mean OD600 of the drug-free control. The testing was conducted in two replicates.
# For UPEC, dose–response analysis was conducted at the CBCS screening facility. Bacteria were cultivated, and the dilution-regrowth assay was performed according to the HTS protocol. Compounds were dispensed into 384-well plates using the Echo® (Labcyte) system, and regrowth was assessed by measuring OD600 after 6 h of incubation at 37 °C in humidified boxes. Three biological replicates were performed.
# (§2) Statistical significance of the drug effects was assessed using a one-way ANOVA followed by Dunnett’s test, comparing each treatment to the drug-free control. Statistical significance of the differences in chemical characteristics between the hit compounds and the Prestwick library was assessed using a Mann–Whitney test. Statistical significance was set at P ≤ 0.05. A five-parameter logistic equation was used for asymmetric sigmoidal curve fitting and for EC50 and IC50 determination. The Venn diagram in Fig. 1F was prepared using BioVenn web application. Characteristics of the chemical and physical properties of Prestwick library compounds were obtained from Supplementary Table S1 from reference. Characteristics of the hit compounds not included in the Prestwick library were retrieved from the PubChem database.
# [2] = tested on: S. flexneri 5a M90T; assay: MIC in tryptic soy broth, S. flexneri; assay type: cell-based, Shigella flexneri; settings: Shigella flexneri, 5AM90T, read-out: MIC (μM) TSB
# Description: (§3) Minimal inhibitory concentrations (MICs) were determined using a standard microdilution assay protocol. CA-MHB medium buffered with 40 mM HEPES (pH 7.4) was used to determine the MICs for UPEC, P. aeruginosa, and S. aureus. […] MICs for UPEC were also determined in LPM buffered with 30 mM MES (pH 5.5). For S. flexneri, MICs were determined in tryptic soy broth (TSB). The assay was performed in triplicates.
# [3] = tested on: TC7 cells; assay: TC7 cell viability upon drug exposure, MTS assay; assay type: cell-based; settings: at the MIC concentrations, 12 h, no bacteria
# Description: TC7 cells were grown to confluence in transparent 96-well cell culture plates (TPP) in the same cell culture medium used for the in vitro infection assay. Just prior to the experiment, the medium was discarded, and the cells were washed twice with sterile PBS to remove any traces of medium or dead cells. […] The plate was incubated at 37 °C in a CO2 incubator for 12 h, under the same conditions as the infection assay.
# The 3-(4,5-dimethylthiazol-2-yl)-5-(3-carboxymethoxyphenyl)-2-(4-sulfophenyl)-2H-tetrazolium (MTS) assay was performed using the CellTiter 96® AQueous One Solution Cell Proliferation Assay kit (Promega), according to the manufacturer’s instructions. Briefly, 20 μl of CellTiter 96 AQueous One Solution Reagent was added to each well, and the plate was incubated for 2 h at 37 °C in a CO2 incubator. The OD490 of the samples was measured using a Spark multimode plate reader (Tecan). The raw values were normalized to the control wells incubated with infection buffer only. The experiment was performed in duplicate.
# [4] = tested on: E. coli CFT073 (UPEC); assay: MIC, standard microdilution assay, growing UPEC; assay type: cell-based, Escherichia coli; settings: Escherichia coli; E. coli, pH 7.4; CA-MHB; read-out: MIC (μM) CA-MHB
# Description: as §3
# [5] = tested on: P. aeruginosa DSM1117; assay: MIC, standard microdilution assay, growing P. aeruginosa; assay type: cell-based, Pseudomonas aeruginosa; settings: Pseudomonas aeruginosa, DSM1117; P. aeruginosa; CA-MHB pH 7.4; read-out: MIC (μM) CA-MHB
# Description: as §3
# [6] = tested on: non-growing S. aureus DSM2569; assay: Dilution-regrowth assay (OD600, start-growth-time) on stationary-phase S. aureus; assay type: cell-based, Staphylococcus aureus; settings: S. aureus
# Description: The cultures were grown and treated for 24 h in 1:4 CA-MHB (pH 7.4).
# This approach allowed us to capture the time when cultures reached a threshold optical density (start-growth-time, SGT[15]).
# as §1
# For P. aeruginosa and S. aureus, dose–response analysis was conducted in 96-well plates with a 200 μl assay volume, following the procedure used for screening assay validation experiments. […] Stock solutions were prepared and stored according to the manufacturers’ instructions, then diluted in 10% DMSO before use. Cultures were incubated for 24 h in 1:4 diluted CA-MHB medium under the same conditions used for UPEC cultivation. In preliminary experiments, each compound was tested at a concentration of 20 μM in the dilution-regrowth assay with 4 technical replicates. Regrowth was monitored using a microplate reader at 37 °C with continuous shaking, and OD600 was recorded every 20 min. The time at which OD600 exceeded the threshold of 0.12 was recorded as the Start_Growth-Time.
# as §2
# [7] = tested on: S. aureus DSM2569; assay: MIC, standard microdilution assay, growing S. aureus; assay type: cell-based, Staphylococcus aureus; settings: Staphylococcus aureus, DSM2569; S. aureus; CA-MHB pH 7.4; read-out: MIC (μM) CA-MHB
# Description: as §3
# [8] = tested on: E. coli CFT073 and BW25113; assay: Semapimod assay: killing and regrowth of stationary-phase E. coli in two media; assay type: cell-based, Escherichia coli; settings: 1% LB diluted in PBS, 20 and 50 μM, 24 h
# Description: E. coli CFT073 and BW25113 were grown in 3 ml of LB at 37 °C, shaking at 200 rpm for 16 h. The overnight cultures were then diluted either 1:100 into 40 ml of 1:4 diluted CA-MHB (40 mM HEPES, pH 7.4) or 1:10,000 into 40 ml of 1% LB in PBS and grown in 125 mL Erlenmeyer flasks for 24 h at 37 °C, shaking at 200 rpm. Following this, 1 ml aliquots of each culture were transferred to 1.5 ml test tubes, and semapimod was added at final concentrations of 20 μM and 50 μM. DMSO was added to drug-free controls. To quantify live bacteria before treatment, a sample of each culture was serially 10-fold diluted into PBS, and 10 μL drops were spot-plated onto LB agar. The closed test tubes were incubated for 24 h at 37 °C without shaking.
# After treatment, the samples were diluted 2500-fold in two steps: a 50-fold dilution into PBS, followed by a 50-fold dilution into CA-MHB in a 96-well plate with a total volume of 200 μl per well. The 96-well plate was then incubated in a BioTek Synergy H1 plate reader at 37 °C with continuous shaking at medium speed for 22 h with a lid. OD600 was recorded every 20 min. Additionally, the treated samples were diluted 1:200 into LB in another 96-well plate and incubated in a BioTek Synergy Mx plate reader at 37 °C without shaking for 22 h, with OD600 recorded every hour. […]
smiles,measurement,setting,value
[H]/N=C(\N/C(=N/[H])NCCCCCCNC(=N)NC(=N)Nc1ccc(Cl)cc1)Nc1ccc(Cl)cc1 [Chlorhexidine],"Regrowth, OD600 at 6h or 8h after dilution into drug-free medium (average)","[1]; E. coli in 1:4 CA-MHB (pH 7.4), drug concentration 0.25",0.634
same,"Regrowth, OD600 at 6h or 8h after dilution into drug-free medium (average)","[1]; E. coli in 1:4 CA-MHB (pH 7.4), drug concentration 0.5",0.632
same,"Regrowth, OD600 at 6h or 8h after dilution into drug-free medium (average)","[1]; E. coli in 1:4 CA-MHB (pH 7.4), drug concentration 1",0.646
same,"Regrowth, OD600 at 6h or 8h after dilution into drug-free medium (average)","[1]; E. coli in 1:4 CA-MHB (pH 7.4), drug concentration 2.5",0.634
same,"Regrowth, OD600 at 6h or 8h after dilution into drug-free medium (average)","[1]; E. coli in 1:4 CA-MHB (pH 7.4), drug concentration 5",0.636
same,"Regrowth, OD600 at 6h or 8h after dilution into drug-free medium (average)","[1]; E. coli in 1:4 CA-MHB (pH 7.4), drug concentration 10",0.585
same,"Regrowth, OD600 at 6h or 8h after dilution into drug-free medium (average)","[1]; E. coli in 1:4 CA-MHB (pH 7.4), drug concentration 30",0.062
same,"Regrowth, OD600 at 6h or 8h after dilution into drug-free medium (average)","[1]; E. coli in LPM (pH 5.5), drug concentration 0.25",0.602
same,"Regrowth, OD600 at 6h or 8h after dilution into drug-free medium (average)","[1]; E. coli in LPM (pH 5.5), drug concentration 0.5",0.598
same,"Regrowth, OD600 at 6h or 8h after dilution into drug-free medium (average)","[1]; E. coli in LPM (pH 5.5), drug concentration 1",0.611
same,"Regrowth, OD600 at 6h or 8h after dilution into drug-free medium (average)","[1]; E. coli in LPM (pH 5.5), drug concentration 2.5",0.608
same,"Regrowth, OD600 at 6h or 8h after dilution into drug-free medium (average)","[1]; E. coli in LPM (pH 5.5), drug concentration 5",0.621
same,"Regrowth, OD600 at 6h or 8h after dilution into drug-free medium (average)","[1]; E. coli in LPM (pH 5.5), drug concentration 10",0.624
same,"Regrowth, OD600 at 6h or 8h after dilution into drug-free medium (average)","[1]; E. coli in LPM (pH 5.5), drug concentration 30",0.633
same,EC50,"[1]; Escherichia coli, E. coli, pH 7.4, regrowth delay of non-growing bacteria, 1:4 CA-MHB, 24 h treatment, OD600 6 h after 2500-fold dilution, read-out: EC50",17.5 µM
same,activity against non-growing UPEC in LPM (pH 5.5) compared to 1:4 CA-MHB (pH 7.4),"[1]; regrowth delay and killing, Figs. 2 and 3",active at pH 7.4 and completely inactive in the acidic medium
same,MIC,[2],1 µM
same,toxicity to TC7 epithelial cells,[3],toxic
same,MIC,[4],1 µM
same,MIC,[5],8 µM
same,"Regrowth, OD600 at 6h or 8h after dilution into drug-free medium (average)",[6]; drug concentration 0.1,0.684
same,"Regrowth, OD600 at 6h or 8h after dilution into drug-free medium (average)",[6]; drug concentration 0.5,0.683
same,"Regrowth, OD600 at 6h or 8h after dilution into drug-free medium (average)",[6]; drug concentration 2.5,0.676
same,"Regrowth, OD600 at 6h or 8h after dilution into drug-free medium (average)",[6]; drug concentration 10,0.247
same,EC50,"[6]; Staphylococcus aureus, DSM2569, regrowth delay of non-growing bacteria, 1:4 CA-MHB pH 7.4, 24 h treatment, OD600 8 h after dilution, read-out: EC50",19.4 µM
same,MIC,[7],2 µM
C/C(=N\NC(=N)N)c1cc(NC(=O)CCCCCCCCC(=O)Nc2cc(/C(C)=N/NC(=N)N)cc(/C(C)=N/NC(=N)N)c2)cc(/C(C)=N/NC(=N)N)c1 [semapimod],activity in the dilution-regrowth screen,"[1]; non-growing UPEC, 20 μM",not among our hits
same,bactericidal activity on stationary-phase E. coli,[8],strong bactericidal activity

# — paper PMC11992225, “Antibacterial compounds against non-growing and intracellular bacteria” (npj Antimicrobials and Resistance, 2025)
